According to patent publication US6583179B2, “Substituted aminoalkylamide derivatives as antagonists of follicle stimulating hormone” (Ortho-McNeil Pharmaceutical, Inc., priority 1999, dated 2003):
pEC50: −log10 of the molar value.

Biological target: T1, human FSH receptor (Homo sapiens, UniProt P23945)
T1 construct: expressed in transfected cells; host or cells: Chinese Hamster Ovary cells (K-1; ATCC), line rhFSHR-cLUC
T1 sequence (P23945 18-695): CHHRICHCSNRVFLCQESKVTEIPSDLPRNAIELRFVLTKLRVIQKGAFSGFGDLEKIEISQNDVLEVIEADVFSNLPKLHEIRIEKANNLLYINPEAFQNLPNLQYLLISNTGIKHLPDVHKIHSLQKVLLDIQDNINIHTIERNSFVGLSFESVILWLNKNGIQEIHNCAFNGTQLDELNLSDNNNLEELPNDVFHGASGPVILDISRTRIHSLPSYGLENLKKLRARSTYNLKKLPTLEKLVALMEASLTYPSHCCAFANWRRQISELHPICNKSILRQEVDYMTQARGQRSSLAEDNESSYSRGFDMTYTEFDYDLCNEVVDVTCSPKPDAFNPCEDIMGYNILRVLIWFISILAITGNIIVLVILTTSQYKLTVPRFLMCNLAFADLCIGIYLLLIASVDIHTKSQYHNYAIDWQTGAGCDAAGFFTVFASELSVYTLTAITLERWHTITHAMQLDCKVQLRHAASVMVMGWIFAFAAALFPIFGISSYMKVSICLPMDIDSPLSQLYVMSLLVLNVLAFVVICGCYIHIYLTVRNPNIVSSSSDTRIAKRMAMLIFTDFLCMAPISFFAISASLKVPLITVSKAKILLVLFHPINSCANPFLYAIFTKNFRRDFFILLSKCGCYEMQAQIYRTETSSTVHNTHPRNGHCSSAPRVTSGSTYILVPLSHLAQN
Test: hFSHR CHO cAMP assay (rhFSHR-cLUC cells, FSH-stimulated cAMP, radioimmunoassay)
Type: cell-based
Conditions: inhibition of cAMP produced by EC70 dose of FSH (4.85 nM); maximum concentration 50 μM
From the text: Minimum Essential Medium-Alpha (MEM-alpha), fetal bovine serum (FBS), penicillin, streptomycin, geneticin, trypsin-EDTA, Hanks' Balanced Salt Solution (no Calcium chloride, Magnesium chloride, Magnesium sulfate, or phenol red; Ca-Mg free HBSS) were purchased from Gibco BRL (Gaithersburg, Md.). The cells used for the FSH bioassay (rhFSHR-cLUC) were Chinese Hamster Ovary cells (K-1; ATCC) stably transformed with human FSH receptor (pSVK-FSHr) and a cAMP luciferase reporter gene (responsive CGα-180LUC). Follicle Stimulating Hormone (Metrodin; Fertinex) was purchased from Serono, Ltd. (Norwell, Mass.).
The rhFSHR-cLUC cell cultures were maintained in MEM-Alpha supplemented with 10% heat-inactivated FBS (HIFBS), 100 U/ml penicillin, 100 μg/mL streptomycin, and included 0.1 g/L geneticin for stable cell selection.
Forty-eight hours after the cells were plated in sterile 96-well culture plates (Corning, Corning, N.Y.) the spent media was removed and 50 μl assay media (modified growth media with 2% HIFBS) containing 2 mM IBMX (3-isobutyl-1-methyl-xanthine) was added to the cells. Compounds (25 μl) in the appropriate concentration were added followed 5 minutes later by an EC70 dose of FSH (25 μl; 160 ng/ml; 4.85 nM). After 10 minutes @ 22.5° C. (room temperature) the reaction was terminated by addition of 25 μL 0.5 N hydrochloric acid to each well. The amount of cAMP produced was measured by radioimmunoassay in a FlashPlate (DuPont, Boston, Mass.). To each flash plate 60 μL flash plate buffer was added followed by 40 μL acidified cell sample or cAMP standard, followed with the addition of 100 μl ^125l-cAMP trace. The FlashPlates were sealed, incubated overnight @ room temperature, and counted in a Packard TopCount (Packard Instrument Co., Meriden, Conn.). The cAMP radioimmunoassay results were calculated using DPM conversion and log-logit transformation of % binding (Excel program).
Test compounds were solubilized in 30% dimethyl sulfoxide (DMSO) at a concentration of 10 mM before diluting to appropriate concentrations in assay medium. The final DMSO concentration in the treated cells and in the control cells was 0.75%.
For individual experiments, a set of samples were tested including a vehicle control (assay buffer), a reference compound (hFSH) at a range of concentrations designed to elicit a minimal to maximal response, and several concentrations of test compounds together with an EC70 concentration of standard (hFSH challenge). Each compound was performed in duplicates for the primary evaluation and quadruplicates for the dose-ranging experiments. The cAMP radioimmunoassay raw data (pmol) were calculated to provide average pmol cAMP produced/ml and the percent inhibition was calculated as shown below.
% Inh=[1−(Avg.pmoltest compound+standard)/(Avg.pmolstandard)]×100
EC50 values were calculated from an analysis of the concentration-inhibition data using a linear analysis of the data transformed to a log-logit format.

| pEC50 | Compound |
| --- | --- |
| 7.40 | C[C@@H](CN(CC(=O)NCc1ccc(CN)cc1)S(=O)(=O)c1ccc(-c2ccccc2Cl)cc1)c1ccccc1 [Compound 198] |
| 7.10 | Cc1ccccc1-c1ccc(S(=O)(=O)N(CC(=O)NCc2ccc(CN)cc2)C[C@@H](C)c2ccccc2)cc1 [Compound 215] |
